Literature values in patent publication US6924277B2, “Cyclized benzamide neurokinin antagonists for use in therapy” (AstraZeneca AB, priority 2000, dated 2005).
Read-outs that look alike come from different tables or passages of the source. Peptide text beside a SMILES is read from it.

Assays:
[1] = Elevated plus-maze
[2] = Light-dark box
Marmoset = Marmoset human intruder; Walsh et al., Psychopharmacology 121: 186-191, 1995
[3] = Forced swim test (depression model); only at 30 mg/kg bid; Vassout et al, Neuropeptides 26/S1: 38, 1994
[4] = Teixeira et al., Eur J Pharmacol 311(1): 7-14, 1996
[5] = Stratton et al., Eur. J. Pharmacol. 250: R11-12, 1993
[6] = Walsh et al., Psychopharmacology 121: 186-191, 1995

## CN(Cc1ccccc1)C(=O)[C@H](Cc1ccc2ccccc2c1)NC(=O)[C@@H]1C[C@@H](O)CN1C(=O)c1cn(C)c2ccccc12 [FK888]
[1]; [4]
  Outcome: anxiolytic

## CC(=O)NC1(c2ccccc2)CCN(CC[C@H](CN(C)C(=O)c2ccccc2)c2ccc(Cl)c(Cl)c2)CC1 [SR48968]
[1]; [4]
  Outcome: anxiolytic
[2]; [5]
  Outcome: anxiolytic
[2]; [6]
  Outcome: anxiolytic
Marmoset
  Outcome: anxiolytic

## Cc1cc(C)cc(C(=O)N2CC[C@H](NCc3ccnc4ccccc34)C[C@H]2Cc2ccccc2)c1 [CGP 49823]
[1]; Vassout et al, Neuropeptides 26/S1: 38, 1994
  Outcome: inactive
Social interaction test, Vassout et al, Neuropeptides 26/S1: 38, 1994
  Outcome: anxiolytic
Social interaction, File, Pharm Bio B 58(3): 747-752, 1997
  Outcome: anxiolytic
[3]
  Outcome: antidepressant

## COC1(C[S@@+]([O-])c2ccccc2)CCN(CCc2c[nH]c3ccc(F)cc23)CC1 [GR159897]
[2]; [6]
  Outcome: anxiolytic
Marmoset
  Outcome: anxiolytic

## C[C@H](NC(=O)CNC(=O)C1CCCCC1)C(=O)N[C@H](Cc1c[nH]c2ccccc12)C(=O)N[C@@H](Cc1ccccc1)C(=O)N(C)C [GR100679] (HELM PEPTIDE1{[O=C(C1CCCCC1)[*:2]].G.A.[dW].F.[CN(C)[*:1]]}$$$$V2.0)
[2]; [5]
  Outcome: anxiolytic
